{
  "source": "patent EP2525785B1",
  "about": "“SUSTAINED RELEASE TABLET FORMULATION CONTAINING ETODOLAC” (Turgut Laclari A.S., priority 2010, dated 2011)",
  "origin": "cited, not measured here",
  "conditions": "below pH 3",
  "data": [
    {"smiles": "CCc1cccc2c3c([nH]c12)C(CC)(CC(=O)O)OCC3", "note": "(stereo not shown) [Etodolac, 2-(1,8-diethyl-4,9-dihydro-3H-pyrano[3,4-b]indole-1-il)acetic acid]", "values": [
      {"measurement": "solubility", "result": "low solubility"}
    ]}
  ]
}
